Assay results as given in patent US11420944B2, “Voltage-dependent t-type calcium channel blocker” (Nippon Chemiphar Co., Ltd., priority 2016, dated 2022).
Read-outs that look alike come from different tables or passages of the source.

Key:
human Cav3.2 channels [1] = molecular target: T1, human Cav3.2 channels (Homo sapiens, UniProt O95180); assay: Intracellular calcium concentration measurement (Fluo-4 AM) in stable cells expressing human Cav3.2 channels, buffer A / buffer B; type: cell-based
T1 construct: expressed in transfected cells; host or cells: HEK293 cells (ATCC No. CRL-1573), plasmid pcDNA3.1(+)
Procedure, shortened: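 HEK293 cells stably expressing human Cav3.2, Fluo-4 loaded, preincubated 15 min at room temperature with compound (0.1% DMSO final) in buffer A (K+ equilibrium −92 mV) or B (−110 mV). After ionophore, KCl (83.8 or 91.8 mM) stimulus; 10 s fluorescence rise (ex 485/em 510 nm) gave % inhibition and IC50.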

human Cav3.2 channels [2] = molecular target: T1, human Cav3.2 channels; assay: Electrophysiological evaluation, whole-cell patch-clamp with automatic patch-clamp system; type: cell-based; conditions: 0.3 μM, holding potential −80 mV; read-out: Cav3.2 channel current inhibition ratio at 0.3 μM of test compound (holding potential −80 mV)
Procedure: Electrophysiological Evaluation
Stable cell line expressing human Cav3.2 channels, which had been produced by Test method (1) of Example 140, was seeded in a 10-cm dish using DMEM medium containing 10% FBS, and the cells were cultured for 24 hours or longer under the conditions of 37° C. and 5% CO2. The cells were detached using Accutase and were used after being suspended in ice-cold extracellular solution. The Cav3.2 channel current was measured by the Whole-cell patch-clamp method using an automatic patch-clamp system (Port-a-Patch; Nanion Technologies GmbH, EPC-10; HEKA Elektronik GmbH, Patchmaster; HEKA Elektronik GmbH) and buffers described below. Measurement of the Cav3.2 channel current was carried out at room temperature, and the measurement conditions were set as follows: holding potential: −80 mV, depolarization potential: −20 mV, depolarization time: 100 msec, and depolarization frequency: 10 sec. The Cav3.2 channel current was defined as the peak value of the inward current observed when depolarization occurred at −20 mV.
For a test compound, a DMSO solution was diluted 1,000 times with extracellular solution, and thus a solution having an intended concentration was produced. The test compound was applied using an extracellular perfusion system (Nanion Technologies GmbH) until the Cav3.2 channel current was stabilized, and five concentrations at the maximum from the low-concentration side were cumulatively applied. The inhibition ratio of the test compound was calculated from the current value immediately before the application of the test compound and the change rate of the Cav3.2 channel current after the application of the test compound (conditions for a holding potential of −80 mV: test compound concentration of 0.3 μM, conditions for a holding potential of −100 mV: test compound concentration of 3 μM).
Extracellular solution: 135 mM NaCl, 4 mM KCl, 1 mM MgCl2, 5 mM CaCl2, 5 mM D-Glucose, and 10 mM HEPES, pH 7.4
Internal solution for electrode: 10 mM NaCl, 10 mM HEPES, 50 mM CsCl, 60 mM CsF, and 20 mM EGTA, pH 7.2

CYP3A4 = molecular target: T2, CYP3A4 (Homo sapiens, UniProt P08684); assay: Evaluation of CYP3A4 activity inhibitory action; type: in vitro ADME; conditions: Human CYP3A4BR EasyCYP Bactosomes, 7-Benzyloxy-4-(trifluoromethyl)-coumarin
T2 construct: purchased Cypex, Ltd; host or cells: E. coli membranes (Bactosomes)
Procedure: Evaluation of CYP3A4 Activity Inhibitory Action
To a 50 mM potassium phosphate buffer solution (pH 7.4), 5 nM Human CYP3A4BR EasyCYP Bactosomes (Cypex, Ltd.), 50 μM 7-Benzyloxy-4-(trifluoromethyl)-coumarin, cofactor mix (0.0081 mM β-NADP^+, 0.4 mM G-6-P, 0.4 mM MgCl2, and 0.2 U/mL G-6-P DH(Y)), and 0.01% Pluronic F-127 were added, and the mixture was incubated for 45 minutes at 37° C. The reaction was initiated by adding the cofactor mix. After the incubation, 0.5 M Tris base/acetonitrile (20:80) was added thereto as a reaction terminating liquid, and the resulting mixture was stirred. Subsequently, the fluorescence intensity (excitation: 405 nm, emission: 535 nm) was measured. The reaction was carried out in duplicate. The results are presented as the inhibition rate at 10 μM of the test compound.

[3] = Tables 2 to 6, buffer A, equilibrium potential of potassium −92 mV, read-out: Inhibitory action of buffer A (inactivated state)

T1 sequence (O95180 whole entry): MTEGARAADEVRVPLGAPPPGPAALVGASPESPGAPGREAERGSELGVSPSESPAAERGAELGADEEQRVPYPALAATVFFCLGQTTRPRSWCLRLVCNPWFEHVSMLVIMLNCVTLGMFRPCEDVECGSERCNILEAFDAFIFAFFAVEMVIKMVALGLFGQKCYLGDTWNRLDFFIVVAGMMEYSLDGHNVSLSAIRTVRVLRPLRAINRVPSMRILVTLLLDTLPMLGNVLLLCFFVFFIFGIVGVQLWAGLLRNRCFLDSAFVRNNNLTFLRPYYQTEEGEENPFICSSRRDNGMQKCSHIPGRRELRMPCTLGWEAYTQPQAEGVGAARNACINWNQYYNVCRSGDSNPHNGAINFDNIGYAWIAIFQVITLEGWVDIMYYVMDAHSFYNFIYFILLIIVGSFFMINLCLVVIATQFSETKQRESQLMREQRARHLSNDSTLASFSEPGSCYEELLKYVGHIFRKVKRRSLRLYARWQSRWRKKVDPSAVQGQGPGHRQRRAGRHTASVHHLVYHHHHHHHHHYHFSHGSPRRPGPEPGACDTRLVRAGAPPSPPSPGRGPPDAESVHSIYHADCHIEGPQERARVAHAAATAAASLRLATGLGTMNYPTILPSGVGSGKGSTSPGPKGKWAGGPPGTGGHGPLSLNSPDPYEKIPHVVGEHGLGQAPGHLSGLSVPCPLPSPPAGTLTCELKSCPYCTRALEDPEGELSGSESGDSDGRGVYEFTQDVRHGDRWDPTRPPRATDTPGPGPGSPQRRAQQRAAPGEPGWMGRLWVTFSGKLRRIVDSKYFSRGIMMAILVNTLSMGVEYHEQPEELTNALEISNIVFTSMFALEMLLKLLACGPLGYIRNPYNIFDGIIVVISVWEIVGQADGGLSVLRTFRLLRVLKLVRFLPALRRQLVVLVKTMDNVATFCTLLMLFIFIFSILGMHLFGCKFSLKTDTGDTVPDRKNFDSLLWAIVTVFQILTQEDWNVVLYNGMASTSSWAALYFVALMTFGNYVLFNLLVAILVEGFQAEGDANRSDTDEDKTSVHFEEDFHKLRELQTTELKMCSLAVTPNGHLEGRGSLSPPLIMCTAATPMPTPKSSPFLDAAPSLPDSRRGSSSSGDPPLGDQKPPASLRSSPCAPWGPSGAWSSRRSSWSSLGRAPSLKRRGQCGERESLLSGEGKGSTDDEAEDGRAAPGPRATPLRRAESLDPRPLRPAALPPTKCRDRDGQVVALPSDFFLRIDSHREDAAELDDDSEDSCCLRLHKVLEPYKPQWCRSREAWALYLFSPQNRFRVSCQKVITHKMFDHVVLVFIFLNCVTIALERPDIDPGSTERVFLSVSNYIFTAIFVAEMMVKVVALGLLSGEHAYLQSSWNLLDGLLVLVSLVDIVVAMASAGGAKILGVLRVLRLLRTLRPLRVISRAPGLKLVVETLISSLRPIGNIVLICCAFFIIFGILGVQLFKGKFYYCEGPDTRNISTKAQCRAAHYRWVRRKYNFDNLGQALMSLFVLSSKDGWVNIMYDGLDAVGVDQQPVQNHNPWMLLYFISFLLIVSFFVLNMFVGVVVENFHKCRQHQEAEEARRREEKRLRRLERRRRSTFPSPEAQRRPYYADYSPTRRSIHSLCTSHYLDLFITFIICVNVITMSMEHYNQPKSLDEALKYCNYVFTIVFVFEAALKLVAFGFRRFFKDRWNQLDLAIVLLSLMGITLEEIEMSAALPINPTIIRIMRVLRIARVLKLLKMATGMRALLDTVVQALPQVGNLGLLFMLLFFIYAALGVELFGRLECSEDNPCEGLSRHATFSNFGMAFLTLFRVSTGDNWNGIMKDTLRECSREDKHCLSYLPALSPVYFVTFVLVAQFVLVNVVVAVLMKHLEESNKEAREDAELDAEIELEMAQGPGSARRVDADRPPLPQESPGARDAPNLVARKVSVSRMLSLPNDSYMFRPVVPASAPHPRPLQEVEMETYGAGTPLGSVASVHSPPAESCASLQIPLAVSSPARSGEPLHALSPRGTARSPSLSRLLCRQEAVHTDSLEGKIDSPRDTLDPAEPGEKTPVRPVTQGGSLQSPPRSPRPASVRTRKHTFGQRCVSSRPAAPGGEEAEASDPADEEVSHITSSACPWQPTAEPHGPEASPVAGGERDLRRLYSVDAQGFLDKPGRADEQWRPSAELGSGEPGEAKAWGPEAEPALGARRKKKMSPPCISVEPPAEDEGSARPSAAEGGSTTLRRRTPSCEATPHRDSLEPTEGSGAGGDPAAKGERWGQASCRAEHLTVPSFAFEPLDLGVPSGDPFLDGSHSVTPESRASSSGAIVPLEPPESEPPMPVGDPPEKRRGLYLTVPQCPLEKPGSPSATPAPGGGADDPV
T2 sequence (P08684 whole entry): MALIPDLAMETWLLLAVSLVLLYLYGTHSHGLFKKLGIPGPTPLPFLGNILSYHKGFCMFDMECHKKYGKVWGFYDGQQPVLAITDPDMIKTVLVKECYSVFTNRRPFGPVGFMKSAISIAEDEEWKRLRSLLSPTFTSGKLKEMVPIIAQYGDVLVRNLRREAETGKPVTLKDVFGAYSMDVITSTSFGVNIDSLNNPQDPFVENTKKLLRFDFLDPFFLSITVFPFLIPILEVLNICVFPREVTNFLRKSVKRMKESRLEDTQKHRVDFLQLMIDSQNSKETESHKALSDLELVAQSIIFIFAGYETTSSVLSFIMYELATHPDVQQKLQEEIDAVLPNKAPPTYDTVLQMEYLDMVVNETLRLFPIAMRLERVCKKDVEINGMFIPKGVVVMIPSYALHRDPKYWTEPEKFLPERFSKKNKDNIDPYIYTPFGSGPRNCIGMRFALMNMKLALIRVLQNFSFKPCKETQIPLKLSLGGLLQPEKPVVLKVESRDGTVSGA

IC50 (human Cav3.2 channels [1]; [3])	inhibition at 0.3 µM (human Cav3.2 channels [2])	CYP3A4 activity inhibition ratio at 10 μM of test compound (CYP3A4)	IC50 (human Cav3.2 channels [1]; Table 1, buffer A, equilibrium potential of potassium −92 mV, read-out: Inhibitory action of buffer A (inactivated state))	IC50 (human Cav3.2 channels [1]; Table 1, buffer B, equilibrium potential of potassium −110 mV, read-out: Inhibitory action of buffer B (resting state or closed state))	Structure (SMILES)
100 to 1000 nM	19%	11.3%	–	–	C[C@@H](NC(=O)C1CC1c1nc2ccccc2[nH]1)c1ccc(C(=O)O)s1 (single isomer, unassigned) [Example 26]
100 to 1000 nM	53%	4.5%	–	–	C[C@@H](NC(=O)C1CC1c1nc2ccccc2[nH]1)c1ccc(C(=O)N2CCCCC2)s1 (stereo in doubt) [Example 61, Trans-2-(1H-benzo[d]imidazol-2-yl)-N—((R)-1-(5-(piperidine-1-carbonyl)thiophen-2-yl)ethyl)cyclopropane-1-carboxamide]
100 to 1000 nM	48%	−1.2%	–	–	C[C@@H](NC(=O)[C@H]1C[C@@H]1c1nc2ccccc2[nH]1)c1ccc(C(=O)N2CCC(F)(F)C2)s1 [Example 60, Trans-2-(1H-benzo[d]imidazol-2-yl)-N—((R)-1-(5-(3,3-difluoropyrrolidine-1-carbonyl)thiophen-2-yl)ethyl)cyclopropane-1-carboxamide]

Continued, molecule first:

Structure (SMILES)	IC50 (human Cav3.2 channels [1]; [3])	inhibition at 0.3 µM (human Cav3.2 channels [2])	CYP3A4 activity inhibition ratio at 10 μM of test compound (CYP3A4)	IC50 (human Cav3.2 channels [1]; Table 1, buffer A, equilibrium potential of potassium −92 mV, read-out: Inhibitory action of buffer A (inactivated state))	IC50 (human Cav3.2 channels [1]; Table 1, buffer B, equilibrium potential of potassium −110 mV, read-out: Inhibitory action of buffer B (resting state or closed state))
C[C@@H](NC(=O)C1CC1c1nc2cc(Cl)ccc2[nH]1)c1cnc(OCC(F)(F)F)s1 (single isomer, unassigned) [Example 64A]	≤ 100 nM	52%	4.4%	–	–
C[C@@H](NC(=O)[C@@H]1CCN(CC(=O)NC(C)(C)C)C1)c1ccc(OCC(F)(F)F)s1.Cl [Example 15, (R)-1-(2-(tert-butylamino)-2-oxoethyl)-N—((R)-1-(5-(2,2,2-trifluoroethoxy)thiophen-2-yl)ethyl)pyrrolidine-3-carboxamide hydrochloride]	–	33%	21.9%	100 to 1000 nM	1000 to 10000 nM
C[C@@H](NC(=O)[C@@H]1CCN(CC(=O)NC23CC4CC(CC(C4)C2)C3)C1)c1ccc(OCC(F)(F)F)s1 [Example 36, (R)-1-(2-(adamantan-1-ylamino)-2-oxoethyl)-N—((R)-1-(5-(2,2,2-trifluoroethoxy)thiophen-2-yl)ethyl)pyrrolidine-3-carboxamide]	≤ 100 nM	94%	81.0%	–	–
C[C@@H](NC(=O)[C@@H]1CCN(CC(=O)Nc2cc(Cl)cc(Cl)c2)C1)c1ccc(OCC(F)(F)F)s1 [Example 42, (R)-1-(2-((3,5-dichlorophenyl)amino)-2-oxoethyl)-N—((R)-1-(5-(2,2,2-trifluoroethoxy)thiophen-2-yl)ethyl)pyrrolidine-3-carboxamide]	≤ 100 nM	87%	77.9%	–	–
C[C@@H](NC(=O)[C@@H]1CCN(CC(=O)C(C)(C)C)C1)c1ccc(OCC(F)(F)F)s1 [Example 43, (R)-1-(3,3-dimethyl-2-oxobutyl)-N—((R)-1-(5-(2,2,2-trifluoroethoxy)thiophen-2-yl)ethyl)pyrrolidine-3-carboxamide]	100 to 1000 nM	32%	23.6%	–	–
C[C@@H](NC(=O)[C@H]1C[C@@H]1c1nc2ccccc2[nH]1)c1cc2cc(F)ccc2[nH]1 [Example 63, (1S,2S)-2-(1H-benzo[d]imidazol-2-yl)-N—((R)-1-(5-fluoro-1H-indol-2-yl)ethyl)cyclopropane-1-carboxamide]	≤ 100 nM	91%	45.7%	–	–
C[C@@H](NC(=O)[C@H]1C[C@@H]1c1nc2ccccc2[nH]1)c1cc2cc(F)c(F)cc2o1 [Example 91, (1S,2S)-2-(1H-benzo[d]imidazol-2-yl)-N—((R)-1-(5,6-difluorobenzofuran-2-yl)ethyl)cyclopropane-1-carboxamide]	≤ 100 nM	72%	20.1%	–	–
